This note sets out measurements from patent US20230145835A1, “Modulators of Alpha-4-beta-7 Integrin and MAdCAM” (48HD Biopharma Inc., priority 2021, published 2023).

As usually defined, the IC50 is the point on the concentration scale where inhibition reaches its midpoint.

Structures are written as SMILES. Numbered stars: 1 amine (or outer) side, 2 acyl side, 3 side chain; on linkers, the order of the positions; unused ones are H or OH. Bridge positions count the residues as written; N and C are the ends. Square brackets hold non-standard residues; d marks the D form. Peptide text beside a SMILES is read from it. X3 = O=C(/C=N/OCCCCCCOc1cc(C[*:2])cc(C[*:3])c1)[*:1]; X1 = O=C(C=NOCCCCCCOc1cc(C[*:2])cc(C[*:3])c1)[*:1]; X5 = O=C(CCCCCCOc1cc(C[*:2])cc(C[*:3])c1)[*:1]; Nle = CCCC[C@H](N)C(=O)O

The first test addresses T1, rh-integrin α4β7/LPAM-1 (Homo sapiens, UniProt P13612+P26010).
T1 sequence (P13612 34-977 limits assumed): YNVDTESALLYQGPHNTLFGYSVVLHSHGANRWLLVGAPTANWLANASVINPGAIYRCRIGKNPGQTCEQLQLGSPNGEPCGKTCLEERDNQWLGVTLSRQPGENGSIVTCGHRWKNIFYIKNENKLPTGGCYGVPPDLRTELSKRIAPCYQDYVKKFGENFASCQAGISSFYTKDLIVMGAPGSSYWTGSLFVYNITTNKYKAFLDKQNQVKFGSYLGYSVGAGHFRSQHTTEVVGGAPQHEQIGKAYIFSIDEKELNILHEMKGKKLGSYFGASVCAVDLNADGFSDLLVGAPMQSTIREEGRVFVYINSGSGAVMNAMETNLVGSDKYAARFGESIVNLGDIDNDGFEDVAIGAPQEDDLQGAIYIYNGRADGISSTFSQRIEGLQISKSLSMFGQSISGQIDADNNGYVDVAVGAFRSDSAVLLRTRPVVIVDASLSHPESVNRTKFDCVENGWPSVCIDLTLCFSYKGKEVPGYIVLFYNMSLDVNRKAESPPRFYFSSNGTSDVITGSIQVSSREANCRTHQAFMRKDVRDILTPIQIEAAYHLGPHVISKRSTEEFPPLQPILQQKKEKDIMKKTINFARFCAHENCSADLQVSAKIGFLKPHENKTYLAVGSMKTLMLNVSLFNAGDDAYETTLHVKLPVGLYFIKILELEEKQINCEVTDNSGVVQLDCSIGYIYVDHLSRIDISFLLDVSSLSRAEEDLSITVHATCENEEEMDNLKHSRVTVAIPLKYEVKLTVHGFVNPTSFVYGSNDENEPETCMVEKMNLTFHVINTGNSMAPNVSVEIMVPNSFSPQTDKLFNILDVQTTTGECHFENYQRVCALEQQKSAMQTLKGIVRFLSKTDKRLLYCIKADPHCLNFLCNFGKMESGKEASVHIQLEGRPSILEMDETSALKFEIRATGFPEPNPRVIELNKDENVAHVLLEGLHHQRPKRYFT
T1 sequence (P26010 20-723 limits assumed): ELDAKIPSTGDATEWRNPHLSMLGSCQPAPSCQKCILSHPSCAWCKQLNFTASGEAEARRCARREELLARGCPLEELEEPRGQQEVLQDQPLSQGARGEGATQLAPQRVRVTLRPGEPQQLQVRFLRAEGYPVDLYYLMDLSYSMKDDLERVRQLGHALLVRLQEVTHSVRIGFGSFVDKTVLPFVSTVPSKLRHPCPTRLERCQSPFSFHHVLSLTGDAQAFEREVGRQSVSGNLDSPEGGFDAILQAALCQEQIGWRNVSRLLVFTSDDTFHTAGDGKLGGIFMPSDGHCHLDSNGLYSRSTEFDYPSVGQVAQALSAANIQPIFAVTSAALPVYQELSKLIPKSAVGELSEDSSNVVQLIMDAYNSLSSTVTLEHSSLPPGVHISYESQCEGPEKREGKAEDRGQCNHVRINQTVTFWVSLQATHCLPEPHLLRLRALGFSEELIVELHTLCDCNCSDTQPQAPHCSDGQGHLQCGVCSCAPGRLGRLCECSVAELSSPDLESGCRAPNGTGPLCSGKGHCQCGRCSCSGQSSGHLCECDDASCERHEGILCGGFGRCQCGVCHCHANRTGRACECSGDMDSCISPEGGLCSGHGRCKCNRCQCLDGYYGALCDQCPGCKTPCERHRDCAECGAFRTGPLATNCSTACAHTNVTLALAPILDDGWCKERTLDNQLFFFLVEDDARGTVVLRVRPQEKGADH
Description: α4β7-MadCAM Competition ELISA (Example 4). The format is binding. The following applies: Table 3 Representative compounds; inhibition of MAdCAM binding to coated α4β7; read-out: IC50. Here is the method:
After washing with wash buffer, 200 μL assay buffer was added to each well and incubated for one hour at 28° C. After another wash with wash buffer, 100 μL of a MAdCAM and peptide mixture in assay buffer was added to each well and incubated for one hour at 28° C., followed by washing with wash buffer.
For `CC(C)C[C@@H]1NC(=O)[C@H]([C@@H](C)O)NC(=O)[C@H](CC(=O)O)NC(=O)[C@H](CO)NC(=O)[C@H](CCCNC(=N)N)N(C)C(=O)c2ccccc2CSC(C)(C)[C@@H](C(=O)N[C@@H](Cc2c[nH]c3ccccc23)C(=O)N[C@H](CCC(=O)O)C(N)=O)NC1=O` [compound 1], the 50% inhibitory concentration (IC50) was determined as 3 nM.

With `CC(C)C[C@@H]1NC(=O)[C@H]([C@@H](C)O)NC(=O)[C@H](CC(=O)O)NC(=O)[C@H](CO)NC(=O)[C@H](CCCNC(=N)N)N(C)C(=O)CCSC[C@@H](C(=O)N[C@@H](Cc2c[nH]c3ccccc23)C(=O)N[C@@H](CCCCN)C(N)=O)NC1=O` [compound 2], the IC50 was determined as 33 nM.

In the case of `CCCC[C@@H]1NC(=O)[C@@H]2CCCN2C(=O)[C@@H]2CSCc3cc(cc(c3)OCCCCCCO/N=C/C(=O)N[C@@H](CCCNC(=N)N)C(=O)N2)CSC[C@@H](C(N)=O)NC(=O)[C@H](CCC(=O)O)NC(=O)[C@H](CCC(N)=O)NC(=O)[C@H](Cc2c[nH]c3ccccc23)NC(=O)[C@H](C(C)C)NC(=O)[C@H](CC(=O)O)NC1=O` [compound 3] (RCP[Nle]DVWQEC-NH2; linker N-2-10 via X3), the IC50 is 53 nM.

Regarding `CCCC[C@@H]1NC(=O)[C@@H]2CCCN2C(=O)[C@@H]2CSCc3cc(cc(c3)OCCCCCCC(=O)NCC(=O)N[C@@H](CCCNC(=N)N)C(=O)N2)CSC[C@@H](C(N)=O)NC(=O)[C@H](CCC(=O)O)NC(=O)[C@H](CCC(N)=O)NC(=O)[C@H](Cc2c[nH]c3ccccc23)NC(=O)[C@H]([C@@H](C)CC)NC(=O)[C@H](CC(=O)O)NC1=O` [compound 4] (GRCP[Nle]DIWQEC-NH2; linker N-3-11 via X5), the IC50 was determined as 75 nM.

As to `CC(=O)N[C@H]1CSSC[C@@H](C(N)=O)NC(=O)[C@H](CC(C)C)NC(=O)[C@H]([C@@H](C)O)NC(=O)[C@H](CC(=O)O)NC(=O)[C@H](CO)NC(=O)[C@H](CCCNC(=N)N)NC1=O` [compound 5] (Ac-CRSDTLC-NH2; disulfide 1-7), the IC50 worked out at 122 nM.

On to `CCCC[C@@H]1NC(=O)[C@@H]2CCCN2C(=O)[C@@H]2CSCc3cc(cc(c3)OCCCCCCO/N=C/C(=O)N[C@@H](CCCNC(=N)N)C(=O)N2)CSC[C@@H](C(N)=O)NC(=O)[C@H](CCC(=O)O)NC(=O)[C@H](Cc2ccc(O)cc2)NC(=O)[C@H](Cc2c[nH]c3ccccc23)NC(=O)[C@H](C(C)C)NC(=O)[C@H](CC(=O)O)NC1=O` [compound 6] (RCP[Nle]DVWYEC-NH2; linker N-2-10 via X3), for which the IC50 amounted to 130 nM.

Turning to `CC(=O)N[C@H]1CSSC[C@@H](C(=O)NCC(=O)N[C@@H](CCC(=O)O)C(N)=O)NC(=O)[C@H](CC(C)C)NC(=O)[C@H]([C@@H](C)O)NC(=O)[C@H](CC(=O)O)NC(=O)[C@H](CO)NC(=O)[C@H](CCCNC(=N)N)NC1=O` [compound 7] (Ac-CRSDTLCGE-NH2; disulfide 1-7), the IC50 was found to be 136 nM.

For `CC(C)C[C@@H]1NC(=O)[C@H]([C@@H](C)O)NC(=O)[C@H](CC(=O)O)NC(=O)[C@H](CO)NC(=O)[C@H](CCCNC(=N)N)NC(=O)[C@@H](N)CSSC[C@@H](C(N)=O)NC1=O` [compound 8] (H-CRSDTLC-NH2; disulfide 1-7), the concentration for half-maximal inhibition (IC50) is 186 nM.

On to `CCCC[C@@H]1NC(=O)[C@@H]2CCCN2C(=O)[C@@H]2CSCc3cc(cc(c3)OCCCCCCO/N=C/C(=O)N[C@@H](CCCNC(=N)N)C(=O)N2)CSC[C@@H](C(N)=O)NC(=O)[C@H](CCC(=O)O)NC(=O)[C@H](CCC(N)=O)NC(=O)[C@H](Cc2c[nH]c3ccccc23)NC(=O)[C@H]([C@@H](C)CC)NC(=O)[C@H](CC(=O)O)NC1=O` [compound 9] (RCP[Nle]DIWQEC-NH2; linker N-2-10 via X3), for which the IC50 was 187 nM.

With `CC(C)C[C@@H]1NC(=O)[C@@H]2CCCN2C(=O)[C@@H]2CSCc3cc(cc(c3)OCCCCCCO/N=C/C(=O)N[C@@H](CCCCN)C(=O)N2)CSC[C@@H](C(N)=O)NC(=O)[C@H](CCC(=O)O)NC(=O)[C@H](Cc2ccc(O)cc2)NC(=O)[C@@H]2CCCN2C(=O)[C@H](C(C)C)NC(=O)[C@H](CC(=O)O)NC1=O` [compound 10] (KCPLDVPYEC-NH2; linker N-2-10 via X3), the IC50 stood at 188 nM.

Turning to `CC[C@H](C)[C@@H]1NC(=O)[C@H](CC(=O)O)NC(=O)[C@H](CC(C)C)NC(=O)[C@@H]2CCCN2C(=O)[C@@H]2CSCc3cc(cc(c3)OCCCCCCO/N=C/C(=O)N[C@@H](CCCCN)C(=O)N2)CSC[C@@H](C(N)=O)NC(=O)[C@H](CCC(=O)O)NC(=O)[C@H](Cc2ccc(O)cc2)NC(=O)[C@@H]2CCCN2C1=O` [compound 11] (KCPLDIPYEC-NH2; linker N-2-10 via X3), the half-inhibitory concentration (IC50) amounted to 198 nM.

Turning to `CCCC[C@@H]1NC(=O)[C@@H]2CCCN2C(=O)[C@@H]2CSCc3cc(cc(c3)OCCCCCCO/N=C/C(=O)N[C@@H](CCCNC(=N)N)C(=O)N2)CSC[C@@H](C(N)=O)NC(=O)[C@H](CCC(=O)O)NC(=O)[C@H](C)NC(=O)[C@H](C)NC(=O)[C@H]([C@@H](C)CC)NC(=O)[C@H](CC(=O)O)NC1=O` [compound 12] (RCP[Nle]DIAAEC-NH2; linker N-2-10 via X3), the IC50 stood at 204 nM.

Staying with this test, now noted: competition ELISA, 4 μg/mL α4β7 coated, MAdCAM and peptide mixture, 28° C.; read-out: IC50.
On to `CCCC[C@@H]1NC(=O)[C@@H]2CCCN2C(=O)[C@@H]2CSCc3cc(cc(c3)OCCCCCCC(=O)NCC(=O)N[C@@H](C)C(=O)N2)CSC[C@@H](C(=O)O)NC(=O)[C@H](CCC(=O)O)NC(=O)[C@H](CCC(N)=O)NC(=O)[C@H](Cc2c[nH]c3ccccc23)NC(=O)[C@H](C(C)C)NC(=O)[C@H](CC(=O)O)NC1=O` [SEQ ID NO: 122] (GACP[Nle]DVWQEC-OH; linker N-3-11 via X5; C-terminus assumed), for which the IC50 turned out to be 740 nM.

`CC(C)C[C@@H]1NC(=O)[C@@H]2CCCN2C(=O)[C@@H]2CSCc3cc(cc(c3)OCCCCCCON=CC(=O)N[C@@H](CCCCN)C(=O)N2)CSC[C@@H](C(=O)O)NC(=O)[C@H](CCC(=O)O)NC(=O)[C@H](Cc2ccc(O)cc2)NC(=O)[C@@H]2CCCN2C(=O)[C@H](CC(C)C)NC(=O)[C@H](CC(=O)O)NC1=O` [SEQ ID NO: 134] (KCPLDLPYEC-OH; linker N-2-10 via X1): the half-maximal inhibitory concentration (IC50) was 363 nM.

On to `CCCC[C@@H]1NC(=O)[C@@H]2CCCN2C(=O)[C@@H]2CSCc3cc(cc(c3)OCCCCCCON=CC(=O)N[C@@H](CCCNC(=N)N)C(=O)N2)CSC[C@@H](C(=O)O)NC(=O)[C@H](CCC(=O)O)NC(=O)CNC(=O)[C@H](C)NC(=O)[C@H](C(C)C)NC(=O)[C@H](CC(=O)O)NC1=O` [SEQ ID NO: 138] (RCP[Nle]DVAGEC-OH; linker N-2-10 via X1), for which the IC50 amounted to 261 nM.

Regarding `CCCC[C@@H]1NC(=O)[C@@H]2CCCN2C(=O)[C@@H]2CSCc3cc(cc(c3)OCCCCCCC(=O)NCC(=O)N[C@@H](CCCNC(=N)N)C(=O)N2)CSC[C@@H](C(=O)O)NC(=O)[C@H](CCC(=O)O)NC(=O)[C@H](CCC(N)=O)NC(=O)[C@H](Cc2c[nH]c3ccccc23)NC(=O)[C@H]([C@@H](C)CC)NC(=O)[C@H](CC(=O)O)NC1=O` [SEQ ID NO: 147] (GRCP[Nle]DIWQEC-OH; linker N-3-11 via X5; C-terminus assumed), the IC50 was 75 nM.

Take `CC(C)C[C@@H]1NC(=O)[C@@H]2CCCN2C(=O)[C@@H](NC(=O)[C@H](CCCCN)NC(=O)[C@@H](N)CO)CSSC[C@@H](C(=O)O)NC(=O)[C@H](CCC(=O)O)NC(=O)[C@H](Cc2ccc(O)cc2)NC(=O)[C@@H]2CCCN2C(=O)[C@H]([C@@H](C)O)NC(=O)[C@H](CC(=O)O)NC1=O` [SEQ ID NO: 152] (H-SKCPLDTPYEC-OH; disulfide 3-11; N-terminus and C-terminus assumed): the IC50 worked out at 552 nM.
